Assay results: ChEMBL document CHEMBL4406824, “Phenolic N-monosubstituted carbamates: Antitubercular and toxicity evaluation of multi-targeting compounds” (Eur J Med Chem, 2019)
In brackets after ≈: the same amount, converted by molar mass.

How the values were obtained:
Assay type in all cases: functional
[1] = system: Mycobacterium tuberculosis; assay: Antimycobacterial activity against multi drug resistant Mycobacterium tuberculosis 9449/2006 after 21 days; settings: 9449/2006, 504 h
[2] = system: Mycobacterium tuberculosis; assay: Antimycobacterial activity against multi drug resistant Mycobacterium tuberculosis 9449/2006 after 14 days; settings: 9449/2006, 336 h
[3] = system: Mycobacterium tuberculosis; assay: Antimycobacterial activity against multi drug resistant Mycobacterium tuberculosis 7357/1998 after 21 days; settings: 7357/1998, 504 h
[4] = system: Mycobacterium tuberculosis; assay: Antimycobacterial activity against multi drug resistant Mycobacterium tuberculosis 7357/1998 after 14 days; settings: 7357/1998, 336 h
[5] = system: Mycobacterium tuberculosis; assay: Antimycobacterial activity against multi drug resistant Mycobacterium tuberculosis 8666/2010 after 14 days; settings: 8666/2010, 336 h
[6] = system: Mycobacterium tuberculosis; assay: Antimycobacterial activity against multi drug resistant Mycobacterium tuberculosis 8666/2010 after 21 days; settings: 8666/2010, 504 h
[7] = system: Mycobacterium tuberculosis; assay: Antimycobacterial activity against multi drug resistant Mycobacterium tuberculosis 234/2005 after 14 days; settings: 234/2005, 336 h
[8] = system: Mycobacterium tuberculosis; assay: Antimycobacterial activity against multi drug resistant Mycobacterium tuberculosis 234/2005 after 21 days; settings: 234/2005, 504 h
[9] = system: Mycobacterium tuberculosis; assay: Antimycobacterial activity against multi drug resistant Mycobacterium tuberculosis Praha 1 after 14 days; settings: Praha 1, 336 h
[10] = system: Mycobacterium tuberculosis; assay: Antimycobacterial activity against multi drug resistant Mycobacterium tuberculosis Praha 1 after 21 days; settings: Praha 1, 504 h
[11] = system: Mycobacterium tuberculosis; assay: Antimycobacterial activity against multi drug resistant Mycobacterium tuberculosis Praha 4 after 14 days; settings: Praha 4, 336 h
[12] = system: Mycobacterium tuberculosis; assay: Antimycobacterial activity against multi drug resistant Mycobacterium tuberculosis Praha 4 after 21 days; settings: Praha 4, 504 h

SMILES | MIC [1] | MIC [2] | MIC [3] | MIC [4] | MIC [5] | MIC [6] | MIC [7] | MIC [8] | MIC [9] | MIC [10] | MIC [11] | MIC [12]
O=C(Nc1ccccc1)Oc1ccc(Cl)cc1C(=O)Nc1ccc(C(F)(F)F)cc1 | 1 µM (≈ 0.435 µg/mL) | 1 µM (≈ 0.435 µg/mL) | 1 µM (≈ 0.435 µg/mL) | 0.5 µM (≈ 0.217 µg/mL) | 0.5 µM (≈ 0.217 µg/mL) | 1 µM (≈ 0.435 µg/mL) | 1 µM (≈ 0.435 µg/mL) | 1 µM (≈ 0.435 µg/mL) | 0.5 µM (≈ 0.217 µg/mL) | 1 µM (≈ 0.435 µg/mL) | 0.5 µM (≈ 0.217 µg/mL) | 1 µM (≈ 0.435 µg/mL)
O=C(NCCc1ccccc1)Oc1ccc(Cl)cc1C(=O)Nc1ccc(C(F)(F)F)cc1 | 2 µM (≈ 0.926 µg/mL) | 2 µM (≈ 0.926 µg/mL) | 2 µM (≈ 0.926 µg/mL) | 1 µM (≈ 0.463 µg/mL) | 2 µM (≈ 0.926 µg/mL) | 2 µM (≈ 0.926 µg/mL) | 2 µM (≈ 0.926 µg/mL) | 2 µM (≈ 0.926 µg/mL) | 1 µM (≈ 0.463 µg/mL) | 1 µM (≈ 0.463 µg/mL) | 2 µM (≈ 0.926 µg/mL) | 2 µM (≈ 0.926 µg/mL)
O=C(NC12CC3CC(CC(C3)C1)C2)Oc1ccc(Cl)cc1C(=O)Nc1ccc(C(F)(F)F)cc1 | 1 µM (≈ 0.493 µg/mL) | 1 µM (≈ 0.493 µg/mL) | 1 µM (≈ 0.493 µg/mL) | 0.5 µM (≈ 0.246 µg/mL) | 0.5 µM (≈ 0.246 µg/mL) | 1 µM (≈ 0.493 µg/mL) | 1 µM (≈ 0.493 µg/mL) | 1 µM (≈ 0.493 µg/mL) | 0.5 µM (≈ 0.246 µg/mL) | 1 µM (≈ 0.493 µg/mL) | 0.5 µM (≈ 0.246 µg/mL) | 1 µM (≈ 0.493 µg/mL)
O=C(NC1CCCCC1)Oc1ccc(Cl)cc1C(=O)Nc1ccc(C(F)(F)F)cc1 | 1 µM (≈ 0.441 µg/mL) | 0.5 µM (≈ 0.22 µg/mL) | 1 µM (≈ 0.441 µg/mL) | 0.5 µM (≈ 0.22 µg/mL) | 0.5 µM (≈ 0.22 µg/mL) | 1 µM (≈ 0.441 µg/mL) | 0.5 µM (≈ 0.22 µg/mL) | 1 µM (≈ 0.441 µg/mL) | 0.5 µM (≈ 0.22 µg/mL) | 1 µM (≈ 0.441 µg/mL) | 0.5 µM (≈ 0.22 µg/mL) | 1 µM (≈ 0.441 µg/mL)
